Data on 12 compounds can be found in ChEMBL document CHEMBL1156972, “Discovery of 2-ureidophenyltriazines bearing bridged morpholines as potent and selective ATP-competitive mTOR inhibitors” (Bioorg Med Chem Lett, 2010).

Test [1] can be described thus: Selectivity ratio of IC50 for PI3K to IC50 for rat brain mTOR.
The target in test [2] is Serine/threonine-protein kinase mTOR (Rattus norvegicus, UniProt P42346). In words: Inhibition of rat brain mTOR assessed as p70S6K-GST protein phosphorylation after 30 mins by ELISA. For orientation: An ELISA detects its analyte on a solid surface through an enzyme-linked reagent.
Test [3] in a line: Inhibition of PI3K assessed as PIP3 level after 20 mins by HTRF assay. (In general: In TR-FRET formats the signal depends on donor and acceptor labels being close together.)
Test [4] deals with LNCaP. In words: Antiproliferative activity against human LNCAP cells after 3 days by MTS assay. The conditions noted are these: 72 h. The format is functional, cell-based. A general note: Tetrazolium assays rely on reduction of a dye to a coloured formazan, in cell work by metabolically active cells.
Test [5] relates to U-87MG ATCC. In words: Antitumor activity against human U87MG cells xenografted in nude mouse assessed as reduction in tumor volume at 5 to 15 mg/kg, po QD for 5 days measured up to 10 days. The format is functional, organism-based.
A short description of test [6]: Antitumor activity against human U87MG cells xenografted in nude mouse assessed as reduction in tumor volume at 10 mg/kg, po QD for 5 days measured after 8 days relative to control. The format is functional, U-87MG ATCC. On the set-up: scale not given: the % may be the effect or the level left.
The subject of test [7] is Mus musculus. In words: Inhibition of PI3K signalling in human MDA361 cells xenografted in nude mouse assessed as suppression of PI3K/PDK1 level at 25 mg/kg, iv after 8 hrs by immunoblotting. On the set-up: dose 25 mg/kg. The format is functional, organism-based.
The test system of test [8] is MDA361. In words: Inhibition of PI3K in human MDA361 cells assessed as suppression of P-AKT T308 level at 0.0125 to 10 uM by immunoblotting. The format is cell-based.
Test [9] can be described thus: Antitumor activity against human U87MG cells xenografted in nude mouse assessed as reduction in tumor volume at 5 mg/kg, iv QD for 5 days measured after 9 days relative to control. Also on record: scale not given: the % may be the effect or the level left. The format is functional, U-87MG ATCC.
Test [10] concerns U-87MG ATCC. In words: Antitumor activity against human U87MG cells xenografted in nude mouse assessed as reduction in tumor volume at 12.5 to 25 mg/kg, po QD for 5 days measured after 9 days. The format is functional, organism-based.
In test [11] the test system is Mus musculus. In words: Inhibition of mTOR in human MDA361 cells xenografted in nude mouse assessed as suppression of TORC2 level at 25 mg/kg, iv after 8 hrs by immunoblotting. The format is functional, organism-based. Also on record: dose 25 mg/kg.
For test [12], the system named is Mus musculus. In words: Inhibition of mTOR in human MDA361 cells xenografted in nude mouse assessed as suppression of TORC2 level at 10 mg/kg, iv after 8 hrs by immunoblotting. The format is functional, organism-based. On the set-up: dose 10 mg/kg.
Test [13] deals with Mus musculus. In words: Inhibition of PI3K signalling in human MDA361 cells xenografted in nude mouse assessed as suppression of PI3K/PDK1 level at 10 mg/kg, iv after 8 hrs by immunoblotting. The format is functional, organism-based. Also on record: dose 10 mg/kg.
For test [14], the system named is Mus musculus. In words: Inhibition of mTOR in human MDA361 cells xenografted in nude mouse assessed as suppression of TORC1 level at 10 mg/kg, iv after 8 hrs by immunoblotting. The format is functional, organism-based. On the set-up: dose 10 mg/kg.
Test [15] deals with Mus musculus. In words: Inhibition of mTOR in human MDA361 cells xenografted in nude mouse assessed as suppression of TORC1 level at 25 mg/kg, iv after 8 hrs by immunoblotting. Also on record: dose 25 mg/kg. The format is functional, organism-based.

Active and inactive are the calls of the source. The calls are words filed in the database; no cut-off is given here.

The term IC50 denotes the concentration that inhibits the measured activity by half. `O=C(Nc1ccc(-c2nc(N3CC4CCC(C3)O4)nc(N3CC4CCC(C3)O4)n2)cc1)NC1CC1`: the Ratio IC50 in test [1] was determined as 802. Besides, the 50% inhibitory concentration (IC50) in [2] was 2.6 nM; in test [3] it was 2120 nM; in test [4] it was 90 nM.
On to `FC(F)c1nc2ccccc2n1-c1nc(N2CC3CCC(C2)O3)nc(N2CC3CCC(C2)O3)n1`, for which, in test [1], the Ratio IC50 came to 2.8. Moreover, the 50% inhibitory concentration (IC50) in test [2] was 44 nM; in test [3], 124 nM; in test [4], 680 nM.
For the compound `FC(F)c1nc2ccccc2n1-c1nc(N2CCOCC2)nc(N2CCOCC2)n1` [ZSTK-474], the IC50 in [2] was found to be 45 nM; in test [4] it was 210 nM.
On to `CNC(=O)Nc1ccc(-c2nc(N3CC4CCC(C3)O4)nc(N3CC4CCC(C3)O4)n2)cc1`, for which the Ratio IC50 in test [1] came out at 272. The concentration for half-maximal inhibition (IC50) in test [2] was 2.5 nM; in [3], 680 nM; in [4], 190 nM.
For `CN1CCN(c2ccc(NC(=O)Nc3ccc(-c4nc(N5CC6CCC(C5)O6)nc(N5C6CCC5COC6)n4)cc3)cc2)CC1` the same measures were 75, 2 nM, 150 nM and less than 0.8 nM.
Turning to `CCNC(=O)Nc1ccc(-c2nc(N3CC4CCC(C3)O4)nc(N3CC4CCC(C3)O4)n2)cc1`, in [1], the Ratio IC50 is 961. Further, the IC50 in test [2] was determined as 2.8 nM; in test [3], 2690 nM; in [4] it was 180 nM.
On to `CN1CCN(c2ccc(NC(=O)Nc3ccc(-c4nc(N5C[C@@H]6C[C@H]5CO6)nc(N5C[C@@H]6C[C@H]5CO6)n4)cc3)cc2)CC1`, for which the Ratio IC50 in [1] is 98. Besides, the IC50 is 35 nM in test [2] and 3440 nM in test [3].
With `CN1CCN(c2ccc(NC(=O)Nc3ccc(-c4nc(N5CC6CCC(C5)O6)nc(N5CC6CCC(C5)O6)n4)cc3)cc2)CC1`, in test [1], the Ratio IC50 amounted to 51. For the same compound, the results for the IC50 in test [2], in test [3] and in [4] were 1.7 nM, 87 nM and 2.3 nM, respectively. For the same compound, the outcome in test [5] was Active. Further, the Activity in test [6] is recorded as 44%.
Take `CN1CCN(c2ccc(NC(=O)Nc3ccc(-c4nc(N5C[C@H]6C[C@@H]5CO6)nc(N5C[C@H]6C[C@@H]5CO6)n4)cc3)cc2)CC1`: the Ratio IC50 in [1] is 14. The half-maximal inhibitory concentration (IC50) stood at 130 nM in [2], 1820 nM in test [3] and 550 nM in test [4].
As to `FC(F)c1nc2ccccc2n1-c1nc(N2CCOCC2)nc(N2CC3CCC(C2)O3)n1`, the Ratio IC50 in test [1] worked out at 0.41. In addition, the values for the IC50 in test [2], in test [3] and in test [4] were 60 nM, 24 nM and 180 nM, respectively.
On the same counts, the results for `O=C(Nc1ccncc1)Nc1ccc(-c2nc(N3CC4CCC(C3)O4)nc(N3CC4CCC(C3)O4)n2)cc1` are 282, 0.5 nM, 142 nM and 45 nM.
For the compound `CN1CCN(c2ccc(NC(=O)Nc3ccc(-c4nc(N5C6CCC5COC6)nc(N5C6CCC5COC6)n4)cc3)cc2)CC1`, the inhibition entry in [7], in test [8], in [11], in test [12], in test [14] and in test [15] was “Active” throughout. The Activity in test [9] turned out to be 31%. Besides, in [10], the outcome was Active. Moreover, the inhibition result in [13] was “inactive”.
